This passage reports EC50 results from patent US20250333406A1, “SULFONYL CYCLIC DERIVATIVES, AND COMPOSITIONS AND METHODS THEREOF” (Lysoway Therapeutics, Inc., priority 2023, published 2025).

For the experiment, the system named is TFEB. The experiment is described as follows: TFEB Nuclear Translocation Assay. Format: cell-based. The conditions noted are these: read-out: EC50 of TFEB activation.
Consider `CC(C)(c1ccc(S(=O)(=O)n2nc(N3CCN(c4ncc(F)cn4)CC34CC4)c3c(Cl)cccc32)cc1)C(F)F` [Compound 99, 4-chloro-1-[4-(2,2-difluoro-1,1-dimethyl-ethyl)phenyl]sulfonyl-3-[7-(5-fluoropyrimidin-2-yl)-4,7-diazaspiro[2.5]octan-4-yl]indazole], for which the EC50 was not above 1 µM.

Regarding `CC(C)(C)c1ncc(S(=O)(=O)n2nc(N3CCN(c4ncc(F)cn4)CC34CC4)c3c(Cl)cccc32)cn1` [Compound 100, 1-(2-tert-butylpyrimidin-5-yl) sulfonyl-4-chloro-3-[7-(5-fluoropyrimidin-2-yl)-4,7-diazaspiro [2.5]octan-4-yl]indazole], the 50% effective concentration (EC50) is not above 1 µM.

In the case of `O=S(=O)(c1ccc(C2(C(F)(F)F)CC2)cc1)n1nc(N2CCN(c3ncc(F)cn3)CC23CC3)c2c(Cl)cccc21` [Compound 101, 4-chloro-3-[7-(5-fluoropyrimidin-2-yl)-4,7-diazaspiro [2.5]octan-4-yl]-1-[4-[1-(trifluoromethyl)cyclopropyl]phenyl]sulfonyl-indazole], the EC50 is not above 1 µM.

As to `CCC(F)(F)c1ccc(S(=O)(=O)n2nc(N3CCN(c4ncc(F)cn4)CC34CC4)c3c(Cl)cccc32)cc1` [Compound 102, 4-chloro-1-[4-(1,1-difluoropropyl)phenyl]sulfonyl-3-[7-(5-fluoropyrimidin-2-yl)-4,7-diazaspiro [2.5]octan-4-yl]indazole], the EC50 was not above 1 µM.

For the compound `CC(F)(F)c1ccc(S(=O)(=O)n2nc(N3CCN(c4ncc(F)cn4)CC34CC4)c3c(Cl)ccc(F)c32)cc1` [Compound 103, 4-chloro-1-[4-(1,1-difluoroethyl)phenyl]sulfonyl-7-fluoro-3-[7-(5-fluoropyrimidin-2-yl)-4,7-diazaspiro [2.5]octan-4-yl]indazole], the EC50 is not above 1 µM.

`CC(F)(F)c1ccc(S(=O)(=O)n2nc(N3CCC3C(F)(F)F)c3c(Cl)cccc32)cc1` (centres unmarked) [Compound 104, 4-chloro-1-[4-(1,1-difluoroethyl)phenyl]sulfonyl-3-[2-(trifluoromethyl)azetidin-1-yl]indazole]: the EC50 was not above 1 µM.

`CC(F)(F)c1ccc(S(=O)(=O)n2nc(N3CCN(c4ncc(F)cn4)CC3C(C)(C)F)c3c(Cl)cccc32)cc1` (centres unmarked) [Compound 105, 4-chloro-1-((4-(1,1-difluoroethyl)phenyl)sulfonyl)-3-(2-(2-fluoropropan-2-yl)-4-(5-fluoropyrimidin-2-yl)piperazin-1-yl)-1H-indazole]: the concentration giving a half-maximal response (EC50) was not above 1 µM.

For the compound `CC(F)(F)c1ccc(S(=O)(=O)n2nc(N3CCN(c4ncc(F)cn4)C[C@H]3C(F)(F)F)c3c(Cl)cccc32)cc1` [Compound 106, 4-chloro-1-[4-(1,1-difluoroethyl)phenyl]sulfonyl-3-[(2S)-4-(5-fluoropyrimidin-2-yl)-2-(trifluoromethyl)piperazin-1-yl]indazole], the concentration giving a half-maximal response (EC50) is not above 1 µM.

Take `CC(F)(F)c1ccc(S(=O)(=O)n2nc(N3CCN(c4ncc(F)cn4)CC3C(C)(C)C)c3c(Cl)cccc32)cc1` (centres unmarked) [Compound 108, 3-[2-tert-butyl-4-(5-fluoropyrimidin-2-yl)piperazin-1-yl]-4-chloro-1-[4-(1,1-difluoroethyl)phenyl]sulfonyl-indazole]: the EC50 was not above 1 µM.

Take `CC(C)S(=O)(=O)c1ccc(S(=O)(=O)n2nc(N3CCC[C@@H]3C(F)(F)F)c3c(Cl)cccc32)cc1` [Compound 109, 4-chloro-1-(4-isopropylsulfonylphenyl)sulfonyl-3-[(2R)-2-(trifluoromethyl)pyrrolidin-1-yl]indazole]: the 50% effective concentration (EC50) is not above 1 µM.

For the compound `CC(C)S(=O)(=O)n1ccc(S(=O)(=O)n2nc(N3CCN(c4ncc(F)cn4)CC34CC4)c3c(Cl)cccc32)c1` [Compound 111, 4-chloro-3-[7-(5-fluoropyrimidin-2-yl)-4,7-diazaspiro [2.5]octan-4-yl]-1-(1-isopropylsulfonylpyrrol-3-yl) sulfonyl-indazole], the concentration giving a half-maximal response (EC50) was not above 1 µM.

As to `O=S(=O)(c1ccc(C(F)F)cc1)n1nc(N2CCN(c3ncc(F)cn3)CC2C2CC2)c2c(Cl)cccc21` (centres unmarked) [Compound 112, 4-chloro-3-[2-cyclopropyl-4-(5-fluoropyrimidin-2-yl)piperazin-1-yl]-1-[4-(difluoromethyl)phenyl]sulfonyl-indazole], the EC50 was not above 1 µM.

For `O=S(=O)(c1ccc(C(F)(F)F)cc1)n1nc(N2CCN(c3ncc(F)cn3)CC23CC3)c2c(Cl)cccc21` [Compound 113, 4-chloro-3-[7-(5-fluoropyrimidin-2-yl)-4,7-diazaspiro[2.5]octan-4-yl]-1-[4-(trifluoromethyl)phenyl]sulfonyl-indazole], the concentration giving a half-maximal response (EC50) was not above 1 µM.

For the compound `O=S(=O)(c1ccc(S(=O)(=O)n2nc(N3CCN(c4ncc(F)cn4)CC34CC4)c3c(Cl)cccc32)cc1)C(F)F` [Compound 114, 4-chloro-1-[4-(difluoromethylsulfonyl)phenyl]sulfonyl-3-[7-(5-fluoropyrimidin-2-yl)-4,7-diazaspiro[2.5]octan-4-yl]indazole], the EC50 was not above 1 µM.

With `O=S(=O)(c1ccc(OC(F)F)cc1)n1nc(N2CCN(c3ncc(F)cn3)CC23CC3)c2c(Cl)cccc21` [Compound 115, 4-chloro-1-[4-(difluoromethoxy)phenyl]sulfonyl-3-[7-(5-fluoropyrimidin-2-yl)-4,7-diazaspiro[2.5]octan-4-yl]indazole], the concentration giving a half-maximal response (EC50) was not above 1 µM.

Consider `CC(F)(F)c1ccc(S(=O)(=O)n2nc(N3CCN(c4ncc(F)cn4)CC34CC4)c3c(Cl)cccc32)cc1` [Compound 116, 4-chloro-1-[4-(1,1-difluoroethyl)phenyl]sulfonyl-3-[7-(5-fluoropyrimidin-2-yl)-4,7-diazaspiro[2.5]octan-4-yl]indazole], for which the EC50 is not above 1 µM.

On to `O=S(=O)(c1ccc(OC(F)(F)F)cc1)n1nc(N2CCN(c3ncc(F)cn3)CC23CC3)c2c(Cl)cccc21` [Compound 117, 4-chloro-3-[7-(5-fluoropyrimidin-2-yl)-4,7-diazaspiro [2.5]octan-4-yl]-1-[4-(trifluoromethoxy)phenyl]sulfonyl-indazole], for which the EC50 is not above 1 µM.

Take `O=S(=O)(c1ccc(SC(F)(F)F)cc1)n1nc(N2CCN(c3ncc(F)cn3)CC23CC3)c2c(Cl)cccc21` [Compound 118, 4-chloro-3-[7-(5-fluoropyrimidin-2-yl)-4,7-diazaspiro[2.5]octan-4-yl]-1-[4-(trifluoromethylsulfanyl)phenyl]sulfonyl-indazole]: the EC50 was not above 1 µM.

In the case of `CC(F)(F)c1ccc(S(=O)(=O)n2nc(N3CCN(C4COC4)CC34CC4)c3c(Cl)cccc32)cc1` [Compound 119, 4-chloro-1-((4-(1,1-difluoroethyl)phenyl)sulfonyl)-3-(7-(oxetan-3-yl)-4,7-diazaspiro[2.5]octan-4-yl)-1H-indazole], the EC50 was not above 1 µM.

In the case of `CC(F)(F)c1ccc(S(=O)(=O)n2nc(N3CCN(C4COC4)CC3C(F)(F)F)c3c(Cl)cccc32)cc1` (centres unmarked) [Compound 120, 4-chloro-1-((4-(1,1-difluoroethyl)phenyl)sulfonyl)-3-(4-(oxetan-3-yl)-2-(trifluoromethyl)piperazin-1-yl)-1H-indazole], the half-maximal effective concentration (EC50) was not above 1 µM.

Regarding `CC(F)(F)c1ccc(S(=O)(=O)n2nc(N3CCN(c4ncc(F)cn4)C[C@H]3C(C)(C)F)c3c(Cl)cccc32)cc1` [Compound 121, (S)-4-chloro-1-((4-(1,1-difluoroethyl)phenyl)sulfonyl)-3-(2-(2-fluoropropan-2-yl)-4-(5-fluoropyrimidin-2-yl)piperazin-1-yl)-1H-indazole], the EC50 is not above 1 µM.

On to `CC(F)(F)c1ccc(S(=O)(=O)n2nc(N3CCN(c4ncc(F)cc4F)CC34CC4)c3c(Cl)cccc32)cc1` [Compound 123, 4-chloro-1-((4-(1,1-difluoroethyl)phenyl)sulfonyl)-3-(7-(3,5-difluoropyridin-2-yl)-4,7-diazaspiro[2.5]octan-4-yl)-1H-indazole], for which the EC50 was not above 1 µM.

For the compound `CC(F)(F)c1ccc(S(=O)(=O)n2nc(N3CCN(c4ccc(Cl)cc4F)CC34CC4)c3c(Cl)cccc32)cc1` [Compound 124, 4-chloro-3-(7-(4-chloro-2-fluorophenyl)-4,7-diazaspiro[2.5]octan-4-yl)-1-((4-(1,1-difluoroethyl)phenyl)sulfonyl)-1H-indazole], the EC50 is not above 1 µM.

Consider `CC(F)(F)c1ccc(S(=O)(=O)n2nc(N3CCN(c4ccc(F)cc4Cl)CC34CC4)c3c(Cl)cccc32)cc1` [Compound 125, 4-chloro-3-(7-(2-chloro-4-fluorophenyl)-4,7-diazaspiro [2.5]octan-4-yl)-1-((4-(1,1-difluoroethyl)phenyl)sulfonyl)-1H-indazole], for which the EC50 was not above 1 µM.

`CC(F)(F)c1ccc(S(=O)(=O)n2nc(N3CCN(c4ccc(F)cc4F)CC34CC4)c3c(Cl)cccc32)cc1` [Compound 126, 4-chloro-1-((4-(1,1-difluoroethyl)phenyl)sulfonyl)-3-(7-(2,4-difluorophenyl)-4,7-diazaspiro[2.5]octan-4-yl)-1H-indazole]: the concentration giving a half-maximal response (EC50) is not above 1 µM.

As to `CC(F)(F)c1ccc(S(=O)(=O)n2nc(N3CCN(C(=O)F)CC34CC4)c3c(Cl)cccc32)cc1` [Compound 127, 4-(4-chloro-1-((4-(1,1-difluoroethyl)phenyl)sulfonyl)-1H-indazol-3-yl)-4,7-diazaspiro [2.5]octane-7-carbonyl fluoride], the EC50 was not above 1 µM.

For the compound `CC(F)(F)c1ccc(S(=O)(=O)n2nc(N3CCN(C(C)(C)CF)CC34CC4)c3c(Cl)cccc32)cc1` [Compound 128, 4-chloro-1-((4-(1,1-difluoroethyl)phenyl)sulfonyl)-3-(7-(1-fluoro-2-methylpropan-2-yl)-4,7-diazaspiro [2.5]octan-4-yl)-1H-indazole], the 50% effective concentration (EC50) was not above 1 µM.

On to `CC(F)(F)C12CC(S(=O)(=O)n3nc(N4CCN(c5ncc(F)cn5)CC45CC5)c4c(Cl)cccc43)(C1)C2` [Compound 129, 4-chloro-1-((3-(1,1-difluoroethyl)bicycle [1.1.1]pentan-1-yl)sulfonyl)-3-(7-(5-fluoropyrimidin-2-yl)-4,7-diazaspiro [2.5]octan-4-yl)-1H-indazole], for which the EC50 is not above 1 µM.

For `CC(F)(F)c1ccc(S(=O)(=O)n2nc(N3CCN(C(C)(CF)CF)CC34CC4)c3c(Cl)cccc32)cc1` [Compound 130, 4-chloro-1-[4-(1,1-difluoroethyl)phenyl]sulfonyl-3-[7-[2-fluoro-1-(fluoromethyl)-1-methyl-ethyl]-4,7-diazaspiro [2.5]octan-4-yl]indazole], the concentration for a half-maximal effect (EC50) is not above 1 µM.
